Source: patent publication US9676757B2, “Heterocyclic compounds as NaV channel inhibitors and uses thereof” (Merck Patent GmbH, priority 2014, dated 2017)
Where a name gives a salt, the structure may show the parent alone. Read-outs that look alike come from different tables or passages of the source.

How the values were obtained:
[1] = secondary progressive MS patients; over 2 years; p=0.02; cited from earlier work
[2] = target: Nav1.6 (Homo sapiens, UniProt Q9UQD0); assay: Nav two-pulse protocol, IonWorks Quattro electrophysiology; type: cell-based; conditions: -120 mV to 0 mV, compound incubated 300 s
Chain of Nav1.6 (Q9UQD0 whole entry): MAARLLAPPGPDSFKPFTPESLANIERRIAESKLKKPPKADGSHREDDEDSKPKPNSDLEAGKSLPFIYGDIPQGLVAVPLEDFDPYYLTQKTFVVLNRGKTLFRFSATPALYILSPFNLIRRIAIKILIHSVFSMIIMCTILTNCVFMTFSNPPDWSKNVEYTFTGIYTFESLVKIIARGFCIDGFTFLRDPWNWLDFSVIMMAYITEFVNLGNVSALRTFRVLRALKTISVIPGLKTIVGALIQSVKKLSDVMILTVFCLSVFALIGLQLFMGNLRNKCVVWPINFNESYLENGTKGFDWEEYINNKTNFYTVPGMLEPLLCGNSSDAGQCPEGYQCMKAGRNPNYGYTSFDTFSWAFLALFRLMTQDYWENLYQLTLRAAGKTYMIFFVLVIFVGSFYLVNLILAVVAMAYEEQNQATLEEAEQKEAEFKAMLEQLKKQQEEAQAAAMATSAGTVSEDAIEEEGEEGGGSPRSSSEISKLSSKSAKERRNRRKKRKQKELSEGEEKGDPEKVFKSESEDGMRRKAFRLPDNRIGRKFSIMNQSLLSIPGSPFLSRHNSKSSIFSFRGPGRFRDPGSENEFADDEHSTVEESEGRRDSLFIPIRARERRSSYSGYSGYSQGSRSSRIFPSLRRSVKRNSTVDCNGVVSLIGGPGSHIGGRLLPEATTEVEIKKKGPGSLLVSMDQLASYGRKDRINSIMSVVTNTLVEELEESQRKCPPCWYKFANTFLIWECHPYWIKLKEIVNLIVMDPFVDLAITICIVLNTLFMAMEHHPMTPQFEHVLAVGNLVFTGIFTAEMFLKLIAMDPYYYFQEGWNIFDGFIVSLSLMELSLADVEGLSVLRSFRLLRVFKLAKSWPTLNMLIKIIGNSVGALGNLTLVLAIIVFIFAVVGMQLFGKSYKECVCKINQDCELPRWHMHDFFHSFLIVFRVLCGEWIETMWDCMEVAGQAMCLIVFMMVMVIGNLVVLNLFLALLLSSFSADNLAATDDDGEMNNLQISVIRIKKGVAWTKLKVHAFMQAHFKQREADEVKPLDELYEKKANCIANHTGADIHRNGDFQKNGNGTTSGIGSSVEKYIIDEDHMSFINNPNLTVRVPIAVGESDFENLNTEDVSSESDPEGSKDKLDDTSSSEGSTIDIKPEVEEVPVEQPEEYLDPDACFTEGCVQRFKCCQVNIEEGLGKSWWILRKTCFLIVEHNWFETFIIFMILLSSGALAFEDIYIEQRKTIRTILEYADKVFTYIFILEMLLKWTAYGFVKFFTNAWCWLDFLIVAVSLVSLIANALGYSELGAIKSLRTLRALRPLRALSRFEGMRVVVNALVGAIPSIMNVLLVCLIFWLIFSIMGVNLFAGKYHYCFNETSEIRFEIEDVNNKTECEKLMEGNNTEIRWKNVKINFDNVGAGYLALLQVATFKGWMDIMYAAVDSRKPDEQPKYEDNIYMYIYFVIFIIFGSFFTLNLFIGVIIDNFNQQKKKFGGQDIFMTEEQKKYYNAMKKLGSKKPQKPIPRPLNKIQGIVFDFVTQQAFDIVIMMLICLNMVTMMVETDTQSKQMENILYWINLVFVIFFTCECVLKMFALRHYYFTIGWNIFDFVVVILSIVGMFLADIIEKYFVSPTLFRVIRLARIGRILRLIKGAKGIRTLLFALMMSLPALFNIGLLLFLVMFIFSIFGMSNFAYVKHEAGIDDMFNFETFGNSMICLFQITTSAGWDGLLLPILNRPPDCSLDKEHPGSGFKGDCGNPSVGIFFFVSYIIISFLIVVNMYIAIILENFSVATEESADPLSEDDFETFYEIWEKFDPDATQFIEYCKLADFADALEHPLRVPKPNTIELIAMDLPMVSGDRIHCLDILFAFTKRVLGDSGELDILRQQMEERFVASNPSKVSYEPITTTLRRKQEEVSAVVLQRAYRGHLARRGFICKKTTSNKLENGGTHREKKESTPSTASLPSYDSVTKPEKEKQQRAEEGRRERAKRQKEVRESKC
Summary of the method: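 Two-pulse protocol on IonWorks Quattro with amphotericin B (200 μg/ml) perforated patch: holding −120 mV, 2.5 s step to 0 mV, 5 ms gap, 20 ms step to 0 mV. Compounds (0.3% DMSO final) incubated 300 s; block taken as Post/Pre peak inward current for each pulse.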

For `Nc1nnc(-c2cccc(Cl)c2Cl)c(N)n1` [Lamotrigine], the “deterioration of the timed 25-foot walk” value [1] is given as “reduced the deterioration of the timed 25-foot walk”.

Molecule `CC(C)CS(=O)(=O)c1cccc(CN2CCC(C(=O)OCc3ccccn3)C2)c1` (centres unmarked) [Compound 47, 1-[3-(2-Methyl-propane-1-sulfonyl)-benzyl]-pyrrolidine-3-carboxylic acid pyridin-2-ylmethyl ester] has an IC50 ([2]; read-out: Nav1.6 Tonic) of over 20 µM and an IC50 ([2]; read-out: Nav1.6 inac) of 1 to 5 µM.

With `COc1ccccc1CNC(=O)C1CCN(Cc2cccc(Oc3ccccc3)c2)C1` (centres unmarked) [Compound 65, 1-(3-Phenoxy-benzyl)-pyrrolidine-3-carboxylic acid 2-methoxy-benzylamide] the IC50 ([2]; read-out: Nav1.6 Tonic) was over 20 µM and the IC50 ([2]; read-out: Nav1.6 inac) was under 1 µM.

In the case of `O=C(NCc1ccccn1)C1CCN(Cc2cccc(Oc3ccc(F)cc3)c2)C1` (centres unmarked) [Compound 13, 1-[3-(4-Fluoro-phenoxy)-benzyl]-pyrrolidine-3-carboxylic acid (pyridin-2-ylmethyl)-amide], the IC50 ([2]; read-out: Nav1.6 Tonic) is reported as over 20 µM and the IC50 ([2]; read-out: Nav1.6 inac) is reported as under 1 µM.

`O=C(NCc1ccccn1)C1CCN(Cc2cccc(Oc3cccnc3)c2)C1` (centres unmarked) [Compound 12, 1-[3-(Pyridin-3-yloxy)-benzyl]-pyrrolidine-3-carboxylic acid (pyridin-2-ylmethyl)-amide] showed an IC50 ([2]; read-out: Nav1.6 Tonic) of over 20 µM and an IC50 ([2]; read-out: Nav1.6 inac) of 1 to 5 µM.

Molecule `O=C(NCc1ccccn1)C1(F)CCN(Cc2cccc(Oc3cccc(C(F)(F)F)c3)c2)C1` (centres unmarked) [Compound 25, 3-Fluoro-1-[3-(3-trifluoromethyl-phenoxy)-benzyl]-pyrrolidine-3-carboxylic acid (pyridin-2-ylmethyl)-amide] has an IC50 ([2]; read-out: Nav1.6 Tonic) of over 20 µM and an IC50 ([2]; read-out: Nav1.6 inac) of 1 to 5 µM.

In the case of `CCNC(=O)C1(C)CCN(Cc2cccc(OC(F)(F)F)c2)C1` (centres unmarked) [Compound 41, 3-Methyl-1-(3-trifluoromethoxy-benzyl)-pyrrolidine-3-carboxylic acid ethylamide], the IC50 ([2]; read-out: Nav1.6 Tonic) is reported as 10 to 20 µM and the IC50 ([2]; read-out: Nav1.6 inac) is reported as under 1 µM.

`CCC(NC(=O)C1(C)CCN(Cc2cccc(Oc3ccccc3)c2)C1)c1cccnc1` (centres unmarked) [Compound 103, 3-Methyl-1-(3-phenoxy-benzyl)-pyrrolidine-3-carboxylic acid (1-pyridin-3-yl-propyl)-amide] showed an IC50 ([2]; read-out: Nav1.6 Tonic) of over 20 µM and an IC50 ([2]; read-out: Nav1.6 inac) of over 5 µM.

For `CC(C)COc1cccc(CN2CCC(c3noc(-c4cc(Cl)ccn4)n3)C2)c1` (centres unmarked) [Compound 53, 4-Chloro-2-{3-[1-(3-isobutoxy-benzyl)-pyrrolidin-3-yl]-[1,2,4]oxadiazol-5-yl}-pyridine], the IC50 ([2]; read-out: Nav1.6 Tonic) was over 20 µM and the IC50 ([2]; read-out: Nav1.6 inac) was 1 to 5 µM.

`CC1(C(=O)NCc2ccccn2)CCN(Cc2cnc(-c3ccccc3)s2)C1` (centres unmarked) [Compound 102, 3-Methyl-1-(2-phenyl-thiazol-5-ylmethyl)-pyrrolidine-3-carboxylic acid (pyridin-2-ylmethyl)-amide] showed an IC50 ([2]; read-out: Nav1.6 Tonic) of over 20 µM and an IC50 ([2]; read-out: Nav1.6 inac) of 1 to 5 µM.

`O=C(NCc1c(F)cccc1F)C1CCN(Cc2cccc(Oc3ccccc3)c2)C1` (centres unmarked) [Compound 79, 1-(3-Phenoxy-benzyl)-pyrrolidine-3-carboxylic acid 2,6-difluoro-benzylamide] showed an IC50 ([2]; read-out: Nav1.6 Tonic) of 10 to 20 µM and an IC50 ([2]; read-out: Nav1.6 inac) of under 1 µM.

`CN1CCN(C(=O)C2CCN(Cc3cccc(Oc4ccccc4)c3)C2)CC1=O` (centres unmarked) [Compound 104, 1-Methyl-4-[1-(3-phenoxy-benzyl)-pyrrolidine-3-carbonyl]-piperazin-2-one] showed an IC50 ([2]; read-out: Nav1.6 Tonic) of over 20 µM and an IC50 ([2]; read-out: Nav1.6 inac) of 1 to 5 µM.

`Cc1ccc(CNC(=O)C2CCN(Cc3cccc(OCC(F)(F)F)c3)C2)nc1` (centres unmarked) [Compound 97, 1-[3-(2,2,2-Trifluoro-ethoxy)-benzyl]-pyrrolidine-3-carboxylic acid (5-methyl-pyridin-2-ylmethyl)-amide] gave an IC50 ([2]; read-out: Nav1.6 Tonic) of over 20 µM and an IC50 ([2]; read-out: Nav1.6 inac) of over 5 µM.

Work on `O=C(NCc1nc(-c2ccccc2)cs1)C1CCN(Cc2cccc(Oc3ccccc3)c2)C1` (centres unmarked) [Compound 85, 1-(3-Phenoxy-benzyl)-pyrrolidine-3-carboxylic acid (4-phenyl-thiaz-1-2-ylmethyl)-amide] yielded an IC50 ([2]; read-out: Nav1.6 Tonic) of over 20 µM and an IC50 ([2]; read-out: Nav1.6 inac) of 1 to 5 µM.

Molecule `O=C(NCc1ccc(F)cc1)C1CCN(Cc2cccc(Oc3ccccc3)c2)C1` (centres unmarked) [Compound 75, 1-(3-Phenoxy-benzyl)-pyrrolidine-3-carboxylic acid 4-fluoro-benzylamide] has an IC50 ([2]; read-out: Nav1.6 Tonic) of 10 to 20 µM and an IC50 ([2]; read-out: Nav1.6 inac) of 1 to 5 µM.

In the case of `O=C(NCc1ccc(OC(F)F)cc1)C1CCN(Cc2cccc(Oc3ccccc3)c2)C1` (centres unmarked) [Compound 96, 1-(3-Phenoxy-benzyl)-pyrrolidine-3-carboxylic acid 4-difluoromethoxy-benzylamide], the IC50 ([2]; read-out: Nav1.6 Tonic) is reported as over 20 µM and the IC50 ([2]; read-out: Nav1.6 inac) is reported as over 5 µM.

With `O=C(NCc1ccccn1)C1(F)CCN(Cc2cccc(Oc3ccc(F)c(F)c3)c2)C1` (centres unmarked) [Compound 24, 1-[3-(3,4-Difluoro-phenoxy)-benzyl]-3-fluoro-pyrrolidine-3-carboxylic acid (pyridin-2-ylmethyl)-amide] the IC50 ([2]; read-out: Nav1.6 Tonic) was over 20 µM and the IC50 ([2]; read-out: Nav1.6 inac) was 1 to 5 µM.

Work on `O=C(NCc1ccccn1)C1CCN(Cc2cccc(Oc3ccccn3)c2)C1` (centres unmarked) [Compound 4, 1-[3-(Pyridin-2-yloxy)-benzyl]-pyrrolidine-3-carboxylic acid (pyridin-2-ylmethyl)-amide] yielded an IC50 ([2]; read-out: Nav1.6 Tonic) of 10 to 20 µM and an IC50 ([2]; read-out: Nav1.6 inac) of under 1 µM.

`O=C(NCc1ccccn1)C1(Cl)CCN(Cc2cccc(Oc3ccccc3)c2)C1=O` (centres unmarked) [Compound 95, 3-Chloro-2-oxo-1-(3-phenoxy-benzyl)-pyrrolidine-3-carboxylic acid (pyridin-2-ylmethyl)-amide] showed an IC50 ([2]; read-out: Nav1.6 Tonic) of over 20 µM and an IC50 ([2]; read-out: Nav1.6 inac) of over 5 µM.

In the case of `CC(C)COc1cccc(CN2CCC(COCc3ccccn3)C2)c1` (centres unmarked) [Compound 35, 2-[1-(3-Isobutoxy-benzyl)-pyrrolidin-3-ylmethoxymethyl]-pyridine], the IC50 ([2]; read-out: Nav1.6 Tonic) is reported as over 20 µM and the IC50 ([2]; read-out: Nav1.6 inac) is reported as 1 to 5 µM.

In the case of `O=C(C1CN(Cc2cccc(Oc3ccccc3)c2)CCO1)N1CCOCC1` (centres unmarked) [Compound 106, Morpholin-4-yl-[4-(3-phenoxy-benzyl)-morpholin-2-yl]-methanone], the IC50 ([2]; read-out: Nav1.6 Tonic) is reported as over 20 µM and the IC50 ([2]; read-out: Nav1.6 inac) is reported as over 5 µM.

`O=C(NCc1ccccn1)C1CCN(Cc2ccc(F)c(Oc3ccccc3)c2)C1` (centres unmarked) [Compound 15, 1-(4-Fluoro-3-phenoxy-benzyl)-pyrrolidine-3-carboxylic acid (pyridin-2-ylmethyl)-amide] showed an IC50 ([2]; read-out: Nav1.6 Tonic) of over 20 µM and an IC50 ([2]; read-out: Nav1.6 inac) of over 5 µM.

`O=C(NCc1ccccn1)C1CCN(Cc2cccc(Oc3ncccn3)c2)C1` (centres unmarked) [Compound 44, 1-[3-(Pyrimidin-2-yloxy)-benzyl]-pyrrolidine-3-carboxylic acid (pyridin-2-ylmethyl)-amide] showed an IC50 ([2]; read-out: Nav1.6 Tonic) of over 20 µM and an IC50 ([2]; read-out: Nav1.6 inac) of over 5 µM.

Work on `O=C(NCc1ccccn1)C1CN(Cc2cccc(Oc3ccccc3)c2)CCO1` (centres unmarked) [Compound 105, 4-(3-Phenoxy-benzyl)-morpholine-2-carboxylic acid (pyridin-2-ylmethyl)-amide] yielded an IC50 ([2]; read-out: Nav1.6 Tonic) of over 20 µM and an IC50 ([2]; read-out: Nav1.6 inac) of 1 to 5 µM.

Work on `O=C(NCc1ncccc1F)C1CCN(Cc2cccc(OCC(F)(F)F)c2)C1` (centres unmarked) [Compound 98, 1-[3-(2,2,2-Trifluoro-ethoxy)-benzyl]-pyrrolidine-3-carboxylic acid (3-fluoro-pyridin-2-ylmethyl)-amide] yielded an IC50 ([2]; read-out: Nav1.6 Tonic) of over 20 µM and an IC50 ([2]; read-out: Nav1.6 inac) of over 5 µM.

In the case of `CC(C)COc1cccc(CN2CCC(c3noc(Cc4ccccn4)n3)C2)c1` (centres unmarked) [Compound 57, 2-{3-[1-(3-Isobutoxy-benzyl)-pyrrolidin-3-yl]-[1,2,4]oxadiazol-5-ylmethyl}-pyridine], the IC50 ([2]; read-out: Nav1.6 Tonic) is reported as over 20 µM and the IC50 ([2]; read-out: Nav1.6 inac) is reported as 1 to 5 µM.

`Cc1cc(C)nc(CNC(=O)C2CCN(Cc3cccc(S(=O)(=O)N4CCCC4)c3)C2)c1` (centres unmarked) [Compound 111, 1-[3-(Pyrrolidine-1-sulfonyl)-benzyl]-pyrrolidine-3-carboxylic acid (4,6-dimethyl-pyridin-2-ylmethyl)-amide hydrochloride] gave an IC50 ([2]; read-out: Nav1.6 Tonic) of over 20 µM and an IC50 ([2]; read-out: Nav1.6 inac) of 1 to 5 µM.

For `CC(C)c1ccc(Oc2cccc(CN3CCC(F)(C(=O)NCc4ccccn4)C3)c2)cc1` (centres unmarked) [Compound 26, 3-Fluoro-1-[3-(4-isopropyl-phenoxy)-benzyl]-pyrrolidine-3-carboxylic acid (pyridin-2-ylmethyl)-amide], the IC50 ([2]; read-out: Nav1.6 Tonic) was over 20 µM and the IC50 ([2]; read-out: Nav1.6 inac) was 1 to 5 µM.

`O=C(NCc1ccc(C(F)(F)F)cc1)C1CCN(Cc2cccc(Oc3ccccc3)c2)C1` (centres unmarked) [Compound 71, 1-(3-Phenoxy-benzyl)-pyrrolidine-3-carboxylic acid 4-trifluoromethyl-benzylamide] gave an IC50 ([2]; read-out: Nav1.6 Tonic) of 10 to 20 µM and an IC50 ([2]; read-out: Nav1.6 inac) of 1 to 5 µM.

In the case of `COc1cccc(Oc2cccc(CN3CCC(C(=O)NCc4ccccn4)C3)c2)c1` (centres unmarked) [Compound 2, 1-[3-(3-Methoxy-phenoxy)-benzyl]-pyrrolidine-3-carboxylic acid (pyridin-2-ylmethyl)-amide], the IC50 ([2]; read-out: Nav1.6 Tonic) is reported as over 20 µM and the IC50 ([2]; read-out: Nav1.6 inac) is reported as 1 to 5 µM.
